Assay results from patent US20120165339A1, “CYCLOPROPANE DERIVATIVES” (EISAI R&D MANAGEMENT CO., LTD., priority 2010, published 2012).
Read-outs that look alike come from different tables or passages of the source.

Columns and labels:
OX2 [1] = target: T1, OX2 (Homo sapiens, UniProt O43614); assay: Antagonism PLAP reporter assay, HEK-293 cells expressing human OX2; format: cell-based; parameters: expressed in transfected cells; host or cells: HEK-293 cell line, expression vector pBabeCLIH; settings: HEK-293, 1 nM human OX-A; IC50 converted to Ki by Cheng-Prusoff equation
T1 sequence (O43614 1-444): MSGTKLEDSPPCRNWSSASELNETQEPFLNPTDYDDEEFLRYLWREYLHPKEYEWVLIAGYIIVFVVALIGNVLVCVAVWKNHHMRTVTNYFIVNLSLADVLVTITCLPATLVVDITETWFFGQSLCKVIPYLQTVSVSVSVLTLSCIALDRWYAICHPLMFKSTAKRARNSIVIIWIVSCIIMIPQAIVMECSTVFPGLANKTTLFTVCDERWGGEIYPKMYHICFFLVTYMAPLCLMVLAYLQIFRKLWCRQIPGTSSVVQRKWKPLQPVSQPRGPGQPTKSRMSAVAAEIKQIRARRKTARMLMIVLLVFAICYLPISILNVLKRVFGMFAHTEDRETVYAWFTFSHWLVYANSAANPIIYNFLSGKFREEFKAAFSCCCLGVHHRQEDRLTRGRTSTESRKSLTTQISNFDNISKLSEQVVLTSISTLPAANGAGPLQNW
How it was run: (§1)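 HEK-293 cells expressing human OX1 or OX2 preincubated 1 h at room temperature with compound, then stimulated with 1 nM orexin-A plus 300 nM forskolin for about 18-24 h at 37 °C. Secreted PLAP read by luminescence; IC50 converted to Ki via Cheng-Prusoff using measured OX-A Kd.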

mice (C57BL/6NCrlCrLj) = assay: Sleep experiment (EEG/EMG) in mice; format: in vivo; settings: oral administration, accumulated sleep over 3 hours, difference to vehicle-administration day
Method: As a method for measuring the influence of the present compound on sleep time, electroencephalogram (EEG) and electromyogram (EMG) measurements were carried out in mice (C57BL/6NCrlCrLj).
In order to measure brain waves and muscle signals, EEG and EMG electrode implantation was performed on individual mice, and the mice were then housed in a state in which they could freely move and habituate in individual recording cages for 1 week or longer. Thereafter, amplified EEG and EMG signals were digitally recorded.
Mice received either oral administration of vehicle or test compound in vehicle, after which sleep/wake behavior of mice was recorded for 3 hours.
For sleep analysis, automatic analysis software from Kissei Comtec Co., Ltd. was used to analyze EEG frequency and EMG activity signals in detail and to determine sleep and wake states. Thereafter, accumulated sleeping time over 3 hours was calculated.
The effect of the compound to increase sleep time was evaluated as the difference between sleeping time on the vehicle-administration day and the sleep time on the subsequent drug-administration day.

OX2 [2] = target: T1, OX2; assay: Orexin-receptor binding ability, [125I]-OX-A, CHO cell membranes expressing OX2; parameters: expressed in transfected cells; host or cells: CHO cells (membrane preparation)
How it was run: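 Competition binding used membranes from recombinant CHO cells (5 μg protein/assay) with 0.2 nM [125I]-OX-A tracer and varied compound concentrations. Incubation was 30 min at room temperature in 25 mM HEPES pH 7.5 with CaCl2, MgCl2, 0.5% BSA, 0.05% Tween-20 and 0.2% DMSO. Bound radioactivity was counted by scintillation after one wash, giving IC50 (nM).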

OX1 [3] = target: T2, OX1 (Homo sapiens, UniProt O43613); assay: Antagonism PLAP reporter assay, HEK-293 cells expressing human OX1; format: cell-based; parameters: expressed in transfected cells; host or cells: HEK-293 cell line, expression vector pBabeCLIH; settings: HEK-293, 1 nM human OX-A; IC50 converted to Ki by Cheng-Prusoff equation
T2 sequence (O43613 1-425): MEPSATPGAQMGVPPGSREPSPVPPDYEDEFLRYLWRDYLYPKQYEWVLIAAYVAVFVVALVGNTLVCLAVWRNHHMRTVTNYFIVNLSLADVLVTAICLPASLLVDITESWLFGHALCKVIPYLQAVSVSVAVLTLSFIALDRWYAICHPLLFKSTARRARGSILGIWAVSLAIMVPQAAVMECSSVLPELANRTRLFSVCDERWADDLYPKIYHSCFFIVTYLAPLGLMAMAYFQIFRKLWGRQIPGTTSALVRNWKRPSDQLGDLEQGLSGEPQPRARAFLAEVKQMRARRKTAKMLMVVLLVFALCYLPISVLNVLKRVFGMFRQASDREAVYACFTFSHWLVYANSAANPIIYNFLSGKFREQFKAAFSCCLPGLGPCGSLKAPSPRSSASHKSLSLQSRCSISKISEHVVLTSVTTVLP
How it was run: as §1

OX1 [4] = target: T2, OX1; assay: Orexin-receptor binding ability, [125I]-OX-A, CHO cell membranes expressing OX1; parameters: expressed in transfected cells; host or cells: CHO cells (membrane preparation)
How it was run: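 Buffer was 25 mM HEPES pH 7.5, 1 mM CaCl2, 4.5 mM MgCl2, 0.5% BSA, 0.1% sodium azide, 0.05% Tween-20 and 0.2% DMSO. Bound radioactivity was counted by scintillation, and IC50 values were reported.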

[5] = membranes of recombinant CHO cells, 0.2 nM [125I]-OX-A tracer, read-out: OX2 (IC50)
[6] = membranes of recombinant CHO cells, 0.2 nM [125I]-OX-A tracer, read-out: OX1 (IC50)

Compound | Ki (OX2 [1]) [nM] | Sleep extended time (min/3 hrs) (mice (C57BL/6NCrlCrLj)) | IC50 (OX2 [2]; [5]) [nM] | Ki (OX1 [3]) [nM] | IC50 (OX1 [4]; [6]) [nM] | IC50 (OX2 [2]) [nM] | IC50 (OX1 [4]) [nM]
Cc1nc(C(F)(F)F)nn1CC[C@@]1(c2ccccc2)C[C@H]1C(=O)Nc1ccc(Cl)cn1 [Example 122] | 10 | 21.8 | 3 | 140 | 98 | – | –
Cc1nc(C(F)(F)F)nn1CC[C@@]1(c2ccccc2)C[C@H]1C(=O)Nc1ccc(F)cn1 [Example 121] | 31.4 | 21.3 | 19 | 406 | 166 | – | –
COc1ccc(OC[C@@]2(c3ccccc3)C[C@H]2C(=O)Nc2ccc(C#N)cn2)cc1OC [Example 4, (1R,2S)—N-(5-cyanopyridin-2-yl)-2-[(3,4-dimethoxyphenyl)oxymethyl]-2-phenylcyclopropanecarboxamide] | 5.1 | 57 | 13 | 65.2 | 129 | – | –
COc1ccc(OCC2(c3ccccc3)CC2C(=O)Nc2ccc(Cl)cn2)cc1OC (stereo not shown) [Example 6, N-(5-chloropyridin-2-yl)-2-[(3,4-dimethoxyphenyl)oxymethyl]-2-phenylcyclopropanecarboxamide] | 0.8 | – | – | 9.8 | – | 3 | 19
